Reference: US20180099931A1 (AbbVie S.à.r.l., priority 2016, published 2018)
Read-outs that look alike come from different tables or passages of the source.

Target: T1, F508delCFTR (Homo sapiens, UniProt P13569, DEL508-508)
T1 construct: expressed in transfected cells; host or cells: CFBE41o- human lung-derived epithelial cells (CFBE4lo-F508delCFTR-HRP), doxycycline-inducible
Experiment: Cell Surface Expression-Horse Radish Peroxidase (CSE-HRP) Assay
Format: cell-based
Details: for Emax: read-out: Maximum % activity (without co-corrector)
Experimental: Cell Surface Expression-Horse Radish Peroxidase (CSE-HRP) Assay
The development was achieved by expressing the F508delCFTR mutation along with a horseradish peroxidase (HRP) in the fourth exofacial loop, and then measuring the HRP activity using luminescence readout from these cells, CFBE4lo-F508delCFTR-HRP, that were incubated overnight with the test corrector compounds, either without or with the co-corrector. […] The test compounds were then added either without or with a co-corrector at the required concentrations and further incubated for 18-24 hours at 33° C. The highest concentration tested was 20 μM with an 8-point concentration response curve using a 3-fold dilution in both the test compound without or with the co-corrector. Three replicate plates were run to determine one EC50. All plates contained negative controls (dimethyl sulfoxide, DMSO) and positive control (2 μM of 3-[(2R,4R)-4-({[1-(2,2-difluoro-1,3-benzodioxol-5-yl)cyclopropyl]carbonyl}amino)-7-methoxy-3,4-dihydro-2H-chromen-2-yl]benzoic acid) as well as on-plate concentration response of the positive control. […] The raw counts from the experiment were analyzed using Accelrys® Assay Explorer v3.3.
1−[3*SDPositive Control+3*SDNegative Control/Absolute(MeanPositive Control−MeanNegative Control)]
wherein “SD” is standard deviation.
The % activity measured at each of the 8 test concentrations of the test compound added either without or with a co-corrector (2 μM of 3-[(2R,4R)-4-({[1-(2,2-difluoro-1,3-benzodioxol-5-yl)cyclopropyl]carbonyl}amino)-7-methoxy-3,4-dihydro-2H-chromen-2-yl]benzoic acid) was normalized to the on-plate positive control using the following formulae:
% activity(Test compound without co-corrector)=[(test compound without co-corrector response−DMSO response)/(positive control response−DMSO response)]*100
% activity(Test compound with co-corrector)=[(test compound with co-corrector response−DMSO response)/(positive control response−DMSO response)]*100
The maximum % activity achieved for the test compound either without or with a co-corrector at any tested concentration is presented in Table 4 along with the respective EC50's calculated using the following general sigmoidal curve with variable Hill slope equation (described as Model 42 in the Accelrys® Assay Explorer v3.3 software):
General sigmoidal curve with concentration, response, top, bottom, EC50 and Hill slope. This model describes a sigmoidal curve with an adjustable baseline, a. The equation can be used to fit curves where response is either increasing or decreasing with respect to the independent variable, “x”.
“x” is a concentration of drug under test. “y” is the response. “a” is the maximum response, and “d” is the minimum response “c” is the inflection point (EC50) for the curve. That is, “y” is halfway between the lower and upper asymptotes when x=c. “b” is the slope-factor or Hill coefficient. The sign of b is positive when the response increases with increasing dose and is negative when the response decreases with increasing dose (inhibition).

[1] = CSE-HRP, test compound without co-corrector, read-out: EC50 (without co-corrector)
[2] = CSE-HRP, with co-corrector (2 μM of 3-[(2R,4R)-4-({[1-(2,2-difluoro-1,3-benzodioxol-5-yl)cyclopropyl]carbonyl}amino)-7-methoxy-3,4-dihydro-2H-chromen-2-yl]benzoic acid), read-out: EC50 (with co-corrector)
[3] = CSE-HRP, with co-corrector (2 μM), maximum at any tested concentration, normalized to on-plate positive control
[4] = CSE-HRP, without co-corrector, maximum at any tested concentration, normalized to on-plate positive control
[5] = test compound without co-corrector, maximum at any tested concentration, normalized to on-plate positive control
[6] = test compound without co-corrector, read-out: EC50 (without co-corrector)
[7] = with co-corrector (2 μM of 3-[(2R,4R)-4-({[1-(2,2-difluoro-1,3-benzodioxol-5-yl)cyclopropyl]carbonyl}amino)-7-methoxy-3,4-dihydro-2H-chromen-2-yl]benzoic acid), maximum at any tested concentration, normalized to on-plate positive control
[8] = with co-corrector (2 μM of 3-[(2R,4R)-4-({[1-(2,2-difluoro-1,3-benzodioxol-5-yl)cyclopropyl]carbonyl}amino)-7-methoxy-3,4-dihydro-2H-chromen-2-yl]benzoic acid), read-out: EC50 (with co-corrector)
[9] = with co-corrector (2 μM), maximum at any tested concentration, normalized to on-plate positive control
[10] = without co-corrector, maximum at any tested concentration, normalized to on-plate positive control

T1 sequence (P13569 with tags, fused parts or gaps DEL508-508): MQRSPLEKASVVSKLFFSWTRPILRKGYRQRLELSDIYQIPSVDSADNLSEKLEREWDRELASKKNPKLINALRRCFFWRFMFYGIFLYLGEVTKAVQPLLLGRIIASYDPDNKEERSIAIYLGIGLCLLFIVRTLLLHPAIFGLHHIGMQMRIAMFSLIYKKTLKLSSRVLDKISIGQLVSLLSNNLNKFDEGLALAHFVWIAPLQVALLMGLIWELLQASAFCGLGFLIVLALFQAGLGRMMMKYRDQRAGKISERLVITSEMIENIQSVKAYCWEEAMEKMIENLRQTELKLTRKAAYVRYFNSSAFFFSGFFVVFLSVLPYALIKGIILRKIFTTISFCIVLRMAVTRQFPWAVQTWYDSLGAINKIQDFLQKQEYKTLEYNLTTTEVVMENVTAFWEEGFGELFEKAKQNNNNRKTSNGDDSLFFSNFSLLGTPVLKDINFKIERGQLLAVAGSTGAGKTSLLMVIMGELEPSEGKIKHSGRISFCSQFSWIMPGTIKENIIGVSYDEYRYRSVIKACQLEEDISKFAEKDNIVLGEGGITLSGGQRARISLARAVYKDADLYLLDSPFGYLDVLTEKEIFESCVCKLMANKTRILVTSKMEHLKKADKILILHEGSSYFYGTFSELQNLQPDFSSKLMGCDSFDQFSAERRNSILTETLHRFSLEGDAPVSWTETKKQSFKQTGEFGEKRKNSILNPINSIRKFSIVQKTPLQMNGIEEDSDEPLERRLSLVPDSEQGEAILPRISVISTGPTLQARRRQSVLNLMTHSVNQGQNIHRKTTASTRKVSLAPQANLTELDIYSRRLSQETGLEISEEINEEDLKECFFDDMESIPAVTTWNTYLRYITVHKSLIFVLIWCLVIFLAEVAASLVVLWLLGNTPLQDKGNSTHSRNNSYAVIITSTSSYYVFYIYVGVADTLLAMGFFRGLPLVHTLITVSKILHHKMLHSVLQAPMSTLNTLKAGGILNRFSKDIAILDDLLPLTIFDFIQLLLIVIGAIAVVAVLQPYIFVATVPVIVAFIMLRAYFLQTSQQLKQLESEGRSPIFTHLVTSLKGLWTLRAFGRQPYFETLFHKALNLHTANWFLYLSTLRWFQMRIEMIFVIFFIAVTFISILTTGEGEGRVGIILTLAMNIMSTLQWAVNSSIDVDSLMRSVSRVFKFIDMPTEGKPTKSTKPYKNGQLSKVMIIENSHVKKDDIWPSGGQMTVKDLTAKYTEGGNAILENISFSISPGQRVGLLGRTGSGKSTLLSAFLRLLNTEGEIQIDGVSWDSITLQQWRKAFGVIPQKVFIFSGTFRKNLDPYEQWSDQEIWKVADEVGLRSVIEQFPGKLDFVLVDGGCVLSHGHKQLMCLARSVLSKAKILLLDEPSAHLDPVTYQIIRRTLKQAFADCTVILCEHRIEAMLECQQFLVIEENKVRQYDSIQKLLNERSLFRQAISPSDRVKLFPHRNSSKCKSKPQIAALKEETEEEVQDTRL

Row | Structure (SMILES) | Emax [5] [%] | EC50 [6] [nM] | Maximum % activity (with co-corrector) [7] | EC50 [8] [nM] | Maximum % activity (with co-corrector) [9] | other results
1 | COc1ccc(C(C)(C)C)cc1CN[C@H]1[C@H](C(C)(C)C)[C@@H](C(=O)O)N(C(=O)C(C)n2cc(Cl)c(C)n2)[C@H]1c1ccccc1 (single isomer, unassigned) [III-182] |  |  |  |  |  | EC50 [1]: 1000 to 10000 nM; EC50 [2]: 1000 to 10000 nM; Maximum % activity (with co-corrector) [3]: +++ (≥350); Maximum % activity (without co-corrector) [4]: +++ (≥200)
2 | COc1ccc(C(F)(F)F)cc1CN[C@H]1[C@H](C23CC(C2)C3)[C@@H](C(=O)O)N(C(=O)C2CCCCC2)[C@H]1c1ccccc1 [Example 56] |  | 1000 to 10000 |  | < 1000 | +++ (≥350) | Emax [10]: 100 to 200%
3 | COc1ccc(C23CC(C2)C3)cc1CN[C@H]1[C@H](C(C)(C)C)[C@@H](C(=O)O)N(C(=O)[C@@H]2CCCCO2)[C@H]1c1cccnc1N(C)C [Example 51, (2S,3S,4S,5S)-4-({[5-(bicyclo[1.1.1]pentan-1-yl)-2-methoxyphenyl]methyl}amino)-3-tert-butyl-5-[2-(dimethylamino)pyridin-3-yl]-1-[(2S)-oxane-2-carbonyl]pyrrolidine-2-carboxylic acid] |  | 1000 to 10000 |  | < 1000 | +++ (≥350) | Emax [10]: > 200%
4 | COc1cc(C(F)(F)F)ccc1CN[C@H]1[C@H](C(C)(C)C)[C@@H](C(=O)O)N(C(=O)[C@@H]2CCCCO2)[C@H]1c1ccccc1 [Example 10, (2S,3S,4S,5S)-3-tert-butyl-4-({[2-methoxy-4-(trifluoromethyl)phenyl]methyl}amino)-1-[(2S)-oxane-2-carbonyl]-5-phenylpyrrolidine-2-carboxylic acid] |  | 1000 to 10000 |  | 1000 to 10000 | +++ (≥350) | Emax [10]: > 200%
5 | COc1ncc(C2CCC2)cc1CN[C@H]1[C@H](C(C)(C)C)[C@@H](C(=O)O)N(C(=O)C2CCCCC2)[C@H]1c1cccc2c1OC(C)(C)C2 [Example I-307] |  |  |  |  |  | EC50 [1]: < 1000 nM; EC50 [2]: < 1000 nM; Maximum % activity (with co-corrector) [3]: +++ (≥350); Emax [4]: > 200%
6 | COc1ccc(C2(C#N)CC2)cc1CN[C@H]1[C@H](C(C)(C)C)[C@@H](C(=O)O)N(C(=O)C2CCCCC2)[C@H]1c1ccccc1 [II-400] | 100 to 200 | 1000 to 10000 | +++ (≥350) | 1000 to 10000 |  | 
7 | COc1ncc(C2(C)CC2)cc1CN[C@H]1[C@H](C(C)(C)C)[C@@H](C(=O)O)N(C(=O)C2CCCCC2)[C@H]1c1ccccc1 [II-440] | 100 to 200 | 1000 to 10000 | +++ (≥350) | 1000 to 10000 |  | 
8 | COc1ccc(C(F)(F)F)cc1CN[C@H]1[C@H](C(C)(C)C)[C@@H](C(=O)O)N(C(=O)C2Cc3ccccc3O2)[C@H]1c1ccccc1 (single isomer, unassigned) [II-265] |  |  |  |  |  | EC50 [1]: 1000 to 10000 nM; EC50 [2]: 1000 to 10000 nM; Maximum % activity (with co-corrector) (CSE-HRP, with co-corrector (2 μM), maximum at any tested concentration, normalized to on-plate positive control, 2 µM): ++ (≥150 and <350); Emax [4]: < 100%
9 | COc1cc2c(cc1CN[C@H]1[C@H](C(C)(C)C)[C@@H](C(=O)O)N(C(=O)[C@@H]3CCCCO3)[C@H]1c1cccc3c1OCC3)CCCC2 [Example I-302] |  |  |  |  |  | EC50 [1]: 1000 to 10000 nM; EC50 [2]: 1000 to 10000 nM; Maximum % activity (with co-corrector) [3]: +++ (≥350); Emax [4]: 100 to 200%
10 | COc1ccc(C(C)(C)C)cc1CN[C@H]1[C@H](C(C)(C)C)[C@@H](C(=O)O)N(C(=O)c2cnn3ccccc23)[C@H]1c1ccccc1 [Example I-143] |  | 1000 to 10000 |  | 1000 to 10000 | +++ (≥350) | Emax [10]: < 100%
11 | COc1ccc(-c2cccnc2)cc1CN[C@H]1[C@H](C(C)(C)C)[C@@H](C(=O)O)N(C(=O)C2CCCCC2)[C@H]1c1ccccc1 [II-284] |  |  |  |  |  | EC50 [1]: 1000 to 10000 nM; EC50 [2]: 1000 to 10000 nM; Maximum % activity (with co-corrector) [3]: +++ (≥350); Emax [4]: < 100%
12 | COc1ncc(C(F)(F)F)cc1CN[C@H]1[C@H](C(C)(C)OC)[C@@H](C(=O)O)N(C(=O)C2CCCCC2)[C@H]1c1ccccc1 [Example 22, (2S,3S,4S,5S)-1-(cyclohexanecarbonyl)-3-(2-methoxypropan-2-yl)-4-({[2-methoxy-5-(trifluoromethyl)pyridin-3-yl]methyl}amino)-5-phenylpyrrolidine-2-carboxylic acid] |  | < 1000 |  | < 1000 | +++ (≥350) | Emax [10]: 100 to 200%
13 | COc1cccc([C@@H]2[C@H](NCc3cc(C(F)(F)F)ccc3OC)[C@@H](C(C)(C)C)[C@H](C(=O)O)N2C(=O)C2CCCCO2)n1 (mixture of isomers) [Example I-23] |  | 1000 to 10000 |  | 1000 to 10000 | +++ (≥350) | Emax [10]: < 100%
14 | COc1ccc(C(C)(C)C)cc1CN[C@H]1[C@H](C(C)(C)C)[C@@H](C(=O)O)N(C(=O)c2ccc(OC3CCOCC3)cc2)[C@H]1c1cccnc1N(C)C [II-465] | > 200 | 1000 to 10000 | +++ (≥350) | < 1000 |  | 
15 | COc1ccc(-c2ccc(C#N)cc2)cc1CN[C@H]1[C@H](C(C)(C)C)[C@@H](C(=O)O)N(C(=O)C2CCCCC2)[C@H]1c1ccccc1 [II-289] |  |  |  |  |  | EC50 [1]: < 1000 nM; EC50 [2]: 1000 to 10000 nM; Maximum % activity (with co-corrector) [3]: +++ (≥350); Emax [4]: < 100%
16 | COc1ncc(C2CCC2)cc1CN[C@H]1[C@H](C(C)(C)C)[C@@H](C(=O)O)N(C(=O)[C@@H]2CCCCO2)[C@H]1c1ccccc1F [II-531] | 100 to 200 | 1000 to 10000 | +++ (≥350) | 1000 to 10000 |  | 

Continued, in another order:

Row | Emax [5] [%] | EC50 [6] [nM] | Maximum % activity (with co-corrector) [7] | EC50 [8] [nM] | Maximum % activity (with co-corrector) [9] | Structure (SMILES) | other results
17 | < 100 | > 10000 | + (<150) | > 10000 |  | COc1ccncc1CN[C@@H]1[C@@H](C(C)(C)C)[C@H](C(=O)O)N(C(=O)C2CCCCC2)[C@@H]1c1ccccc1 (racemic) [III-16] | 
18 | < 100 | 1000 to 10000 | ++ (≥150 and <350) | 1000 to 10000 |  | CC(C)(C)[C@@H]1[C@@H](Nc2cc(C#N)ccn2)[C@@H](c2ccccc2)N(C(=O)C2CCCCC2)[C@H]1C(=O)O (racemic) [III-42] | 
19 | < 100 | 1000 to 10000 | ++ (≥150 and <350) | 1000 to 10000 |  | COc1cc2c(cc1CN[C@@H]1[C@H](C(C)(C)C)[C@@H](C(=O)O)N(C(=O)OC(C)C)[C@H]1c1ccccc1)CCC2 [II-555] | 
20 | 100 to 200 | 1000 to 10000 |  | 1000 to 10000 | +++ (≥350) | COc1ccc(C(C)(C)C)cc1CN[C@H]1[C@H](C(C)(C)C)[C@@H](C(=O)O)N(C(=O)c2cc(F)cc3c2OCOC3)[C@H]1c1ccccc1 [III-178] | 
21 | < 100 | > 10000 |  | 1000 to 10000 | ++ (≥150 and <350) | CC(C)(C)[C@H]1[C@H](NCc2ccc3c(c2)OCCCO3)[C@H](c2ccccc2)N(C(=O)C2CCCCC2)[C@@H]1C(=O)O [III-129] | 
22 | 100 to 200 | 1000 to 10000 |  | < 1000 | +++ (≥350) | COc1nc(C(C)(C)C)ccc1CN[C@H]1[C@H](C(C)(C)C)[C@@H](C(=O)O)N(C(=O)OC(C)C)[C@H]1c1cccnc1N(C)C [III-219] | 
